Source: patent publication US10835542B2, “9-aminomethyl minocycline compounds and use thereof in treating community-acquired bacterial pneumonia (CABP)” (Paratek Pharmaceuticals, Inc., priority 2016, dated 2020)
Several values for one entry are separate records, joined by “and”; a condition that tells them apart may be missing. Equal entries are not always repeated.

Experiments:
[1] = Phase 1 multiple oral dose study: safety and tolerability
[2] = tested on: Community-Acquired Bacterial Pneumonia (CABP); experiment: Phase 3 CABP study: Investigator's Assessment of Clinical Response at PTE; assay type: in vivo, human
[3] = Lung tissue versus plasma concentrations in mice; settings: mouse
[4] = Omadacycline Overall (n = 26), Safety Population
[5] = subject who received 450 mg in Period 1 then 300 mg in Period 2
[6] = CE-PTE, PORT Risk Class II as randomized
[7] = CE-PTE, PORT Risk Class III as randomized
[8] = CE-PTE, PORT Risk Class III/IV as randomized
[9] = CE-PTE, PORT Risk Class IV as randomized
[10] = CE-PTE, actual PORT Risk Class II
[11] = CE-PTE, actual PORT Risk Class III
[12] = CE-PTE, actual PORT Risk Class III/IV
[13] = CE-PTE, actual PORT Risk Class IV
[14] = ITT, PORT Risk Class II as randomized
[15] = ITT, PORT Risk Class III as randomized
[16] = ITT, PORT Risk Class III/IV as randomized
[17] = ITT, PORT Risk Class IV as randomized
[18] = ITT, actual PORT Risk Class III
[19] = ITT, actual PORT Risk Class III/IV

CN(C)c1cc(CNCC(C)(C)C)c(O)c2c1C[C@H]1C[C@H]3[C@H](N(C)C)C(O)=C(C(N)=O)C(=O)[C@@]3(O)C(O)=C1C2=O [Compound 1, 9-[(2,2-dimethyl-propylamino)-methyl]-minocycline]
TEAEs leading to early discontinuation of study drug: ALT increased, n (%) [1, 4]: 1 (3.8) n (%) | TEAEs leading to early discontinuation of study drug: All, n (%) [1, 4]: 3 (11.5) n (%) | TEAEs leading to early discontinuation of study drug: Lipase increased, n (%) [1, 4]: 1 (3.8) n (%) | TEAEs leading to early discontinuation of study drug: Nausea, n (%) [1, 4]: 1 (3.8) n (%) | TEAEs leading to early discontinuation of study drug: Syncope, n (%) [1, 4]: 0 n (%) | TEAEs leading to early discontinuation of study drug: Vomiting, n (%) [1, 4]: 1 (3.8) n (%) | n (%) of subjects with Any TEAE [1, 4]: 10 (38.5) n (%) | n (%) of subjects with Treatment-related TEAE [1, 4]: 9 (34.6) n (%) | serious TEAEs (SAEs) ([1]; multiple oral doses 300-600 mg): no serious TEAEs | severity of TEAEs ([1]; multiple oral doses 300-600 mg): either mild or moderate | highest individual ALT value [1, 5]: 150 IU/L | highest individual ALT value above the upper limit of normal [1, 5]: 2.7 fold | subjects reporting TEAEs ([1]; subjects that received omadacycline (300, 450, 600 mg)): 38.5% | Difference (95% CI) in Overall Clinical Success rate at PTE, Compound 1 minus moxifloxacin ([2]; CE-PTE): 2.5% and 2.5 (−1.7, 6.8) % | Overall clinical response at PTE: Clinical Failure ([2]; CE-PTE): 24 (7.1) n (%) | Overall clinical response at PTE: Clinical Success ([2]; CE-PTE): 316 (92.9) n (%) | Clinical Failure at PTE [2, 6]: 3 (6.8) n (%) | Clinical Success at PTE [2, 6]: 41 (93.2) n (%) | Difference (95% CI) in clinical success at PTE [2, 6]: 1.5 (−11.2, 13.9)^[4] % | Clinical Failure at PTE [2, 7]: 14 (6.5) n (%) | Clinical Success at PTE [2, 7]: 202 (93.5) n (%) | Difference (95% CI) in clinical success at PTE [2, 7]: 2.5 (−2.7, 7.8)^[4] % | Clinical Failure at PTE [2, 8]: 21 (7.1) n (%) | Clinical Success at PTE [2, 8]: 275 (92.9) n (%) | Difference (95% CI) in clinical success at PTE [2, 8]: 2.7 (−1.9, 7.3)^[4] % | Clinical Failure at PTE [2, 9]: 7 (8.8) n (%) | Clinical Success at PTE [2, 9]: 73 (91.3) n (%) | Difference (95% CI) in clinical success at PTE [2, 9]: 3.0 (−6.8, 12.8)^[4] % | Clinical Failure at PTE [2, 10]: 2 (4.4) n (%) | Clinical Success at PTE [2, 10]: 43 (95.6) n (%) | Difference (95% CI) in clinical success at PTE [2, 10]: 5.8 (−6.1, 18.1)^[4] % | Clinical Failure at PTE [2, 11]: 13 (6.4) n (%) | Clinical Success at PTE [2, 11]: 191 (93.6) n (%) | Difference (95% CI) in clinical success at PTE [2, 11]: 1.5 (−3.6, 6.9)^[4] % | Clinical Failure at PTE [2, 12]: 22 (7.5) n (%) | Clinical Success at PTE [2, 12]: 273 (92.5) n (%) | Difference (95% CI) in clinical success at PTE [2, 12]: 2.0% and 2.0 (−2.6, 6.6)^[4] % | Clinical Failure at PTE [2, 13]: 9 (9.9) n (%) | Clinical Success at PTE [2, 13]: 82 (90.1) n (%) | Difference (95% CI) in clinical success at PTE [2, 13]: 2.9 (−6.7, 12.5)^[4] % | Difference (95% CI) in Overall Clinical Success rate at PTE, Compound 1 minus moxifloxacin ([2]; ITT): 2.5% and 2.5 (−2.4, 7.4) % | Overall clinical response at PTE: Clinical Failure ([2]; ITT): 32 (8.3) n (%) | Overall clinical response at PTE: Clinical Failure or Indeterminate ([2]; ITT): 48 (12.4) n (%) | Overall clinical response at PTE: Clinical Success ([2]; ITT): 338 (87.6) n (%) | Overall clinical response at PTE: Indeterminate ([2]; ITT): 16 (4.1) n (%) | Clinical Failure at PTE [2, 14]: 6 (10.7) n (%) | Clinical Failure or Indeterminate at PTE [2, 14]: 11 (19.6) n (%) | Clinical Success at PTE [2, 14]: 45 (80.4) n (%) | Difference (95% CI) in clinical success at PTE [2, 14]: −3.6 (−18.2, 11.0)^[4] % | Indeterminate at PTE [2, 14]: 5 (8.9) n (%) | Clinical Failure at PTE [2, 15]: 17 (7.1) n (%) | Clinical Failure or Indeterminate at PTE [2, 15]: 24 (10.0) n (%) | Clinical Success at PTE [2, 15]: 217 (90.0) n (%) | Difference (95% CI) in clinical success at PTE [2, 15]: 3.4 (−2.4, 9.4)^[4] % | Indeterminate at PTE [2, 15]: 7 (2.9) n (%) | Clinical Failure at PTE [2, 16]: 26 (7.9) n (%) | Clinical Failure or Indeterminate at PTE [2, 16]: 37 (11.2) n (%) | Clinical Success at PTE [2, 16]: 293 (88.8) n (%) | Difference (95% CI) in clinical success at PTE [2, 16]: 3.5 (−1.6, 8.7)^[4] % | Indeterminate at PTE [2, 16]: 11 (3.3) n (%) | Clinical Failure at PTE [2, 17]: 9 (10.1) n (%) | Clinical Failure or Indeterminate at PTE [2, 17]: 13 (14.6) n (%) | Clinical Success at PTE [2, 17]: 76 (85.4) n (%) | Difference (95% CI) in clinical success at PTE [2, 17]: 3.4 (−7.5, 14.0)^[4] % | Indeterminate at PTE [2, 17]: 4 (4.5) n (%) | Clinical Failure at PTE ([2]; ITT, actual PORT Risk Class II): 5 (8.8) n (%) | Clinical Failure or Indeterminate at PTE ([2]; ITT, actual PORT Risk Class II): 10 (17.5) n (%) | Clinical Success at PTE ([2]; ITT, actual PORT Risk Class II): 47 (82.5) n (%) | Difference (95% CI) in clinical success at PTE ([2]; ITT, actual PORT Risk Class II): −1.5 (−15.7, 12.8)^[4] % | Indeterminate at PTE ([2]; ITT, actual PORT Risk Class II): 5 (8.8) n (%) | Clinical Failure at PTE [2, 18]: 16 (7.0) n (%) | Clinical Failure or Indeterminate at PTE [2, 18]: 21 (9.3) n (%) | Clinical Success at PTE [2, 18]: 206 (90.7) n (%) | Difference (95% CI) in clinical success at PTE [2, 18]: 2.8 (−3.0, 8.7)^[4] % | Indeterminate at PTE [2, 18]: 5 (2.2) n (%) | Clinical Failure at PTE [2, 19]: 27 (8.2) n (%) | Clinical Failure or Indeterminate at PTE [2, 19]: 38 (11.6) n (%) | Clinical Success at PTE [2, 19]: 291 (88.4) n (%) | Difference (95% CI) in clinical success at PTE [2, 19]: 3.3% and 3.3 (−1.9, 8.5)^[4] % | Indeterminate at PTE [2, 19]: 11 (3.3) n (%) | Clinical Failure at PTE ([2]; ITT, actual PORT Risk Class IV): 11 (10.8) n (%) | Clinical Failure or Indeterminate at PTE ([2]; ITT, actual PORT Risk Class IV): 17 (16.7) n (%) | Clinical Success at PTE ([2]; ITT, actual PORT Risk Class IV): 85 (83.3) n (%) | Indeterminate at PTE ([2]; ITT, actual PORT Risk Class IV): 6 (5.9) n (%) | Kp [3]: 3.7 to 4.4
